Patent publication EP0289604A1, “2-METHYLMERCAPTO-3-CYANO-4-(O-DIFLUOROMETHOXYPHENYL)-6-PHENYL-1,4-DIHYDROPYRIDINE” (INSTITUT ORGANICHESKOGO SINTEZA AKADEMII NAUK LATVIISKOI SSR, priority 1986, dated 1988)

Experiments:
[1] = test system: spontan hypertensiven Ratten (SHR); assay: Hypotensive effect in spontaneously hypertensive rats, single intragastric administration; type: in vivo; conditions: for Der hypotensive Effekt, % an SHR nach 48 Stunden: after 48 hours; for Dauer der hypotensiven Wirkung: single intragastric dose 10 mg/kg (similar dose for comparators), time over which the effect is detected or after which it ends
[2] = Solubility and stability of the substance; type: physicochemical
Experimental: Die genannte Verbindung stellt eine kristalline Substanz vom 128 bis I30°C Schm.p. dar. […] Diese Verbindung ist sowohl in kristallinem Zustand als auch in Porm von Lösungen in organischen Lösungsmitteln stabil.

[3] = test system: spontan hypertensiven Ratten; assay: Hypotensive effect in spontaneously hypertensive rats, repeated intragastric administration for 10 days; type: in vivo; conditions: SHR
in vivo = conditions: mouse, ip, white outbred mice, intraperitoneal administration
[4] = dose 10 mg/kg, single intragastric administration, after 6 hours
[5] = dose 10 mg/kg, single intragastric administration

Row | Compound | Der hypotensive Effekt, % an SHR nach I Stunden ([1]; dose 10 mg/kg, single intragastric administration, after 1 hour) [%] | Der hypotensive Effekt, % an SHR nach 6 Stunden [1, 4] [%] | Der hypotensive Effekt, % an SHR nach 24 Stunden ([1]; dose 10 mg/kg, single intragastric administration, after 24 hours) [%] | Der hypotensive Effekt, % an SHR nach 48 Stunden [1, 5] [%] | Dauer der hypotensiven Wirkung [1] [Stunden] | Stabilität ([2]; in crystalline state and as solutions in organic solvents) | Löslichkeit in Methyl-, Äthylalkohol, Azeton, Chloroform ([2]; organic solvents) | Löslichkeit in Wasser ([2]; water) | systolische Blutdruck herabgesetzt zum 10. Einführungstag ([3]; 10 mg/kg intragastric once daily for 10 days) [%] | arterielle Blutdruck erreichte das Ausgangsniveau nach dem Aufhören der Einführung ([3]; after stopping 10 mg/kg intragastric once daily for 10 days) [Tagen] | LD50 (in vivo) [mg/kg] | systolische Blutdruck herabgesetzt ([1]; single intragastric dose 10 mg/kg, after 6 hours) [%] | Effekt der Senkung des systolischen arteriellen Blutdrucks, Zeit nach der Einführung ([1]; single intragastric dose 10 mg/kg, onset of effect) [Minuten]
1 | COC(=O)C1=C(C)NC(C)=C(C(=O)OC)C1c1ccccc1[N+](=O)[O-] [Nifedipine, 2,6-Dimethyl-3,5-dimethoxykarbonyl-4-(o-nithophenyl)-I,4-di-hydropyridin, reference compound] | 34 | 23 | 0 | 0 | 6 | – | – | – | – | – | – | – | –
2 | CSC1=C(C#N)C(c2ccccc2OC(F)F)C=C(c2ccccc2)N1 (stereo not shown) [Die erfindungsgemässe Verbindung, 2-Methylmerkapto-3-zyano-4-(o-difluormethoxyphenyl)-6-phenyl-I,4-dihydropyridin] | – | 24 | – | 6 | ≤ 48 | stabil | gut löslich | praktisch unlöslich | 26 | ≤ 3 | > 5000 | 21 | 30
